Measured values as given in US10189786B2, “Antibacterial compounds” (Duke University, priority 2013, dated 2019).
In brackets after ≈: the same amount, converted by molar mass.

What was measured:
Assay type in all cases: cell-based
[1] = system: N. gonorrhoeae F89 (high-level cefixime and ceftriaxone resistance); assay: Disk diffusion assay, N. gonorrhoeae F89; details: disc 6 mm; for zone of inhibition at 0.2 µg/disc / zone of inhibition at 2 µg/disc / zone of inhibition at 20 µg/disc: Neisseria gonorrhoeae, read-out: diameter of the growth inhibition, F89
Experimental: (§1) An assay was performed on two strains of Acinetobacter Baumannii: antibiotic susceptible strain (Sus. A.b. Isolate), and multidrug-resistant strains (MDR A.b. Isolate). […] Activity is measured as the diameter (in mm) of the growth inhibition.

[2] = system: N. gonorrhoeae FA19 (a drug-sensitive strain); assay: Disk diffusion assay, N. gonorrhoeae FA19; details: disc 6 mm
Experimental: as §1

[3] = system: E. coli W3110; assay: microbe, parasite or virus in culture; details: wild-type E. coli W3110, 22 hours at 37° C., MTT; for MIC: Escherichia coli, W3110, 22 h
[4] = system: P. aeruginosa PAO1; assay: MIC assay, P. aeruginosa PAO1; details: for MIC: Pseudomonas aeruginosa
[5] = system: N. gonorrhoeae 35/02 (drug-resistant strain); assay: Disk diffusion assay, N. gonorrhoeae 35/02; details: disc 6 mm; for zone of inhibition at 0.2 µg/disc / zone of inhibition at 2 µg/disc / zone of inhibition at 20 µg/disc: Neisseria gonorrhoeae, read-out: diameter of the growth inhibition, 35/02
Experimental: as §1

[6] = system: E. coli W3110PA; assay: microbe, parasite or virus in culture; details: E. coli with native lpxC replaced by that of P. aeruginosa; for MIC: Escherichia coli, W3110PA
[7] = system: N. gonorrhoeae H041; assay: Disk diffusion assay, N. gonorrhoeae H041; details: disc 6 mm; for zone of inhibition at 0.2 µg/disc / zone of inhibition at 2 µg/disc / zone of inhibition at 20 µg/disc: Neisseria gonorrhoeae, read-out: diameter of the growth inhibition, H041; for zone of inhibition at 0.2 µg/disc: H041, 0.2 μg per disc; for zone of inhibition at 2 µg/disc: H041, 2.0 μg per disc; for zone of inhibition at 20 µg/disc: H041, 20 μg per disc
Experimental: as §1

[8] = Neisseria gonorrhoeae, 2.0 μg per disc, read-out: diameter of the growth inhibition, FA19
[9] = Neisseria gonorrhoeae, 20 μg per disc, read-out: diameter of the growth inhibition, FA19

CC(CCc1ccc(-c2ccccc2)cc1)(C(=O)NO)C(C)(O)C(F)F (single isomer, unassigned) [Example 3 Isomer A, 2-(2-(biphenyl-4-yl)ethyl)-4,4-difluoro-N,3-dihydroxy-2,3-dimethylbutanamide]
zone of inhibition at 0.2 µg/disc ([1]; 0.2 μg per disc): 18 mm | zone of inhibition at 2 µg/disc ([1]; 2.0 μg per disc): 27 mm | zone of inhibition at 20 µg/disc ([1]; 20 μg per disc): 33 mm | diameter of the growth inhibition, FA19 ([2]; 0.2 μg per disc, listed as 3 (Isomer A)): 11 mm | zone of inhibition at 2 µg/disc [2, 8]: 20 mm | zone of inhibition at 20 µg/disc [2, 9]: 30 mm | MIC [3]: 50 µg/mL (≈ 138 µM) | MIC P. aeruginosa PAO1 ([4]; P. aeruginosa PAO1, unit from b306, listed as 3 Isomer A): 6.3 µg/mL (≈ 17.3 µM) | zone of inhibition at 0.2 µg/disc ([5]; 0.2 μg per disc): 0 mm | zone of inhibition at 2 µg/disc ([5]; 2.0 μg per disc): 13 mm | zone of inhibition at 20 µg/disc ([5]; 20 μg per disc): 19 mm | MIC E. coli W3110PA ([6]; unit from b306, listed as 3 Isomer A): 3.1 µg/mL (≈ 8.53 µM) | zone of inhibition at 0.2 µg/disc [7]: 9 mm | zone of inhibition at 2 µg/disc [7]: 16 mm | zone of inhibition at 20 µg/disc [7]: 24 mm

CC(NCCCc1ccc(-c2ccccc2)cc1)(C(=O)NO)C(C)(O)C(F)F.Cl (single isomer, unassigned) [Example 135]
diameter of the growth inhibition, F89 ([1]; 0.2 μg per disc): 15 mm | diameter of the growth inhibition, F89 ([1]; 2.0 μg per disc): 27 mm | diameter of the growth inhibition, F89 ([1]; 20 μg per disc): 30 mm | diameter of the growth inhibition, FA19 ([2]; 0.2 μg per disc): 8 mm | diameter of the growth inhibition, FA19 ([2]; 2.0 μg per disc): 19 mm | diameter of the growth inhibition, FA19 ([2]; 20 μg per disc): 26 mm | MIC E. coli W3110 [3]: 10 µg/mL | MIC P. aeruginosa PAO1 ([4]; P. aeruginosa PAO1): 20 µg/mL | diameter of the growth inhibition, 35/02 ([5]; 0.2 μg per disc): 8 mm | diameter of the growth inhibition, 35/02 ([5]; 2.0 μg per disc): 14 mm | diameter of the growth inhibition, 35/02 ([5]; 20 μg per disc): 19 mm | diameter of the growth inhibition, H041 ([7]; 0.2 μg per disc): 8 mm | diameter of the growth inhibition, H041 ([7]; 2.0 μg per disc): 14 mm | diameter of the growth inhibition, H041 ([7]; 20 μg per disc): 23 mm

CC(C)(O)C(C)(CCc1ccc(-c2ccccc2)cc1)C(=O)NO (centres unmarked) [Example 2, 2-(2-(biphenyl-4-yl)ethyl)-N,3-dihydroxy-2,3-dimethylbutanamide]
MIC [3]: > 50 µg/mL | MIC ([4]; PAO1, P. aeruginosa PAO1): 25 µg/mL (≈ 76.4 µM) | MIC [6]: 25 µg/mL (≈ 76.4 µM)

CC(CCn1ccc(-c2ccc(-n3nccn3)cc2)cc1=O)(C(=O)NO)C(C)(O)C(F)F (centres unmarked) [Example 4, 2-(2-(4-(4-(2H-1,2,3-triazol-2-yl)phenyl)-2-oxopyridin-1 (2H)-yl)ethyl)-4,4-difluoro-N,3-dihydroxy-2,3-dimethylbutanamide]
zone of inhibition at 0.2 µg/disc ([1]; 0.2 μg per disc): 7 mm | zone of inhibition at 2 µg/disc ([1]; 2.0 μg per disc): 15 mm | zone of inhibition at 20 µg/disc ([1]; 20 μg per disc): 26 mm | zone of inhibition at 0.2 µg/disc ([2]; Neisseria gonorrhoeae, 0.2 μg per disc, read-out: diameter of the growth inhibition, FA19): 0 mm | zone of inhibition at 2 µg/disc [2, 8]: 8 mm | zone of inhibition at 20 µg/disc [2, 9]: 19 mm | MIC [3]: 3.12 µg/mL (≈ 6.97 µM) | zone of inhibition at 0.2 µg/disc ([5]; 0.2 μg per disc): 0 mm | zone of inhibition at 2 µg/disc ([5]; 2.0 μg per disc): 11 mm | zone of inhibition at 20 µg/disc ([5]; 20 μg per disc): 16 mm | MIC [6]: 3.13 µg/mL (≈ 7 µM) | zone of inhibition at 0.2 µg/disc [7]: 7 mm | zone of inhibition at 2 µg/disc [7]: 10 mm | zone of inhibition at 20 µg/disc [7]: 16 mm

CC(NCc1ccc(-c2ccccc2)cc1)(C(=O)NO)C(C)(O)C(F)F (centres unmarked) [Example 6, 2-(biphenyl-4-ylmethylamino)-4,4-difluoro-N,3-dihydroxy-2,3-dimethylbutanamide]
zone of inhibition at 2 µg/disc [2, 8]: 22 mm | MIC [3]: > 50 µg/mL | MIC ([4]; P. aeruginosa PAO1): 12.5 µg/mL (≈ 34.3 µM) | MIC [6]: 12.5 µg/mL (≈ 34.3 µM)

Cc1ccc(-c2ccc(CN[C@H](C(=O)NO)[C@](C)(O)C(F)F)s2)s1 [Example 7, (2S,3S)-4,4-difluoro-N,3-dihydroxy-3-methyl-2-((5′-methyl-2,2′-bithiophen-5-yl)methylamino)butanamide]
zone of inhibition at 2 µg/disc [2, 8]: 21 mm | MIC [3]: 50 µg/mL (≈ 133 µM) | MIC [6]: 25 µg/mL (≈ 66.4 µM)

C[C@@](O)(C(F)F)[C@H](NCc1ccc(-c2cccs2)s1)C(=O)NO [Example 8, (2S,3S)-2-(2,2′-bithiophen-5-ylmethylamino)-4,4-difluoro-N,3-dihydroxy-3-methylbutanamide]
zone of inhibition at 2 µg/disc [2, 8]: 19 mm | MIC [3]: 25 µg/mL (≈ 69 µM) | MIC [6]: 25 µg/mL (≈ 69 µM)
